Data set [1] relates to Plasmodium falciparum. Put plainly: Antiplasmodial activity against CQ-resistant Plasmodium falciparum 7G8. In kind it is functional.
The subject of data set [2] is Plasmodium falciparum. Put plainly: Antiplasmodial activity against CQ-resistant Plasmodium falciparum Dd2. It counts as functional, organism-based. As to conditions: for IC50: Plasmodium falciparum, Dd2.
The subject of data set [3] is Plasmodium falciparum. The experiment in a line: Antiplasmodial activity against CQ-sensitive Plasmodium falciparum D6. In kind it is functional.
Data set [4] relates to Plasmodium falciparum. Put plainly: Antiplasmodial activity against CQ-resistant Plasmodium falciparum W2 assessed as inhibition of parasite growth. In kind it is functional, organism-based.
Data set [5] has as its system Plasmodium falciparum. Put plainly: Antiplasmodial activity against CQ-sensitive Plasmodium falciparum 3D7. It counts as functional, organism-based. As to conditions: for IC50: Plasmodium falciparum, 3D7.
The nature of data set [6]: Inhibition of beta-hematin formation. In kind it is physicochemical.
Data set [7] relates to Plasmodium falciparum. The experiment in a line: Antiplasmodial activity against CQ-resistant Plasmodium falciparum K1. It counts as functional, organism-based.
For data set [8], the system named is Plasmodium berghei. Put plainly: Antimalarial activity against Plasmodium berghei infected in human HuH7 cells assessed as inhibition of liver cell infection. In kind it is functional, organism-based. As to conditions: Huh-7, Liver.

The structures appear in SMILES notation.

For `Clc1ccc2c(NCCCN3CCN(C4C5CC6CC(C5)CC4C6)CC3)ccnc2c1` (stereo not given), the figures for the Activity in data set [1], in data set [2] and in data set [3] were 2 nM, 1 nM and 0.5 nM, respectively.

By IC50 is commonly meant the concentration needed to halve the response being measured. As for `O=C(NCCCNc1cccc2cc(Cl)ccc12)N[C@H]1C(=O)N(C2CCCCC2)[C@H]1/C=C/c1ccccc1`, in data set [4], the IC50 amounted to 42 nM.

Turning to `Cc1c(O)c(=O)ccn1CCCCCCNc1ccnc2cc(Cl)ccc12`, 4 nM corresponded to half-maximal inhibition in data set [5] (IC50).

Consider `O=C(/C=C/c1ccc(Cl)cc1)c1cccc(Nc2ccnc3cc(Cl)ccc23)c1`, for which the “inhibition (INH)” value in data set [6] is 94%.

On to `O=C(NCCCNc1ccnc2cc(Cl)ccc12)C(=O)N[C@@H]1C(=O)N(C2CCCCC2)[C@@H]1/C=C/c1ccccc1`, for which the IC50 in data set [4] amounted to 34 nM.

With `CCc1c(O)c(=O)ccn1CCCCNc1ccnc2cc(Cl)ccc12`, the IC50 in data set [5] is under 1000 nM.

As to `CCc1c(O)c(=O)ccn1CCCNc1ccnc2cc(Cl)ccc12`, the IC50 in data set [5] is under 1000 nM.

Regarding `Cc1ccc(N2C(=O)[C@@H](NCCNc3ccnc4cc(Cl)ccc34)[C@H]2/C=C/c2ccccc2)cc1`, in data set [4], the IC50 came out at 80 nM.

In data set [5], `COc1cc(/C=C2\SC(=S)N(CCCCNc3ccnc4cc(Cl)ccc34)C2=O)cc(OC)c1OC` gave an IC50 of under 100 nM.

On to `CN(C)c1ccc(/C=C/C(=O)c2cccc(Nc3ccnc4cc(Cl)ccc34)c2)cc1`, for which, in data set [6], the “inhibition (INH)” value is 94%.

Turning to `C[C@H]1[C@@H](OCC[N+]2(CCO[C@H]3O[C@@H]4O[C@@]5(C)CC[C@H]6[C@H](C)CC[C@@H]([C@H]3C)[C@@]46OO5)CCN(CCNc3ccnc4cc(Cl)ccc34)CC2)O[C@@H]2O[C@@]3(C)CC[C@H]4[C@H](C)CC[C@@H]1[C@@]24OO3`, the Activity in data set [5] was determined as 30 nM.

In the case of `C=C[C@H]1CN2CC[C@H]1C[C@H]2[C@H](O)c1ccnc2ccc(OC)cc12` [QUININE], the IC50 in data set [5] worked out at 18 nM.

Molecule `C[C@H]1[C@@H](OCCN(CCCNc2ccnc3cc(Cl)ccc23)CCO[C@H]2O[C@@H]3O[C@@]4(C)CC[C@H]5[C@H](C)CC[C@@H]([C@H]2C)[C@@]35OO4)O[C@@H]2O[C@@]3(C)CC[C@H]4[C@H](C)CC[C@@H]1[C@@]24OO3` gave an Activity in data set [5] of 9 nM.

`O=C1/C(=C/c2ccc([N+](=O)[O-])cc2)SC(=S)N1CCCNc1ccnc2cc(Cl)ccc12`: the IC50 in data set [5] was under 100 nM.

Consider `Cc1ccc(N2C(=O)[C@@H](NC(=O)C(=O)NCCCNc3ccnc4cc(Cl)ccc34)[C@H]2/C=C/c2ccccc2)cc1`, for which the IC50 in data set [4] is 34 nM.

Consider `CCc1c(OCc2ccccc2)c(=O)ccn1CCCCCCNc1ccnc2cc(Cl)ccc12`, for which, in data set [5], the IC50 is under 1000 nM.

As for `O=C(/C=C/c1ccccc1Cl)c1cccc(Nc2ccnc3cc(Cl)ccc23)c1`, the “inhibition (INH)” value in data set [6] was found to be 94%.

With `CCc1c(OCc2ccccc2)c(=O)ccn1CCCCNc1ccnc2cc(Cl)ccc12`, the IC50 in data set [5] was under 1000 nM.

For the molecule `O=C(NCCCCCCNc1ccnc2cc(Cl)ccc12)N[C@H]1C(=O)N(C2CCCCC2)[C@H]1/C=C/c1ccccc1`, the IC50 in data set [4] stood at 42 nM.

Regarding `O=C(/C=C/c1ccccc1)c1cccc(Nc2ccnc3cc(Cl)ccc23)c1`, in data set [6], the “inhibition (INH)” value came out at 94%.

With `O=C(NCCCCNc1ccnc2cc(Cl)ccc12)N[C@H]1C(=O)N(C2CCCCC2)[C@H]1/C=C/c1ccccc1`, in data set [4], the IC50 came to 42 nM.

As to `O=C(N[C@H](c1ccccc1)[C@H](O)C(=O)NCc1cn(-c2ccccc2Nc2ccnc3cc(Cl)ccc23)nn1)c1ccccc1`, the values for the IC50 in data set [7] and in data set [4] were 390 nM and 280 nM, respectively.

Molecule `Cc1c(O)c(=O)ccn1CCCCNc1ccnc2cc(Cl)ccc12` had an IC50 in data set [5] of under 1000 nM.

Regarding `Cc1ccc(N2C(=O)[C@H](NC(=O)NCCNc3cccc4cc(Cl)ccc34)[C@@H]2/C=C/c2ccccc2)cc1`, the IC50 in data set [4] is 42 nM.

Turning to `O=C(N[C@H](c1ccccc1)[C@H](O)C(=O)OCCCNc1ccnc2cc(Cl)ccc12)c1ccccc1`, the IC50 in data set [4] came to 130 nM.

For `COc1cc(/C=C2\SC(=S)N(CCCNc3ccnc4cc(Cl)ccc34)C2=O)cc(OC)c1OC`, the IC50 in data set [5] was under 100 nM.

On to `CCN1CNc2cc(Nc3ccnc4cc(Cl)ccc34)ccc2C1`, for which the values for the IC50 in data set [7] and in data set [4] were 220 nM and 130 nM, respectively.

Regarding `O=C(N[C@H](c1ccccc1)[C@H](O)C(=O)NCc1cn(CNc2ccnc3cc(Cl)ccc23)nn1)c1ccccc1`, the IC50 in data set [7] came to 390 nM; in data set [4], 280 nM.

With `C=C[C@H]1CN2CC[C@H]1C[C@H]2[C@H](OC(=O)C(C)NC(=O)c1cn(CC)c2cc3c(cc2c1=O)OCO3)c1ccnc2ccc(OC)cc12` (stereo not given in full), the IC50 in data set [5] was determined as 12 nM.

Regarding `Cc1ccc(N2C(=O)[C@@H](NC(=O)C(=O)NCCNc3ccnc4cc(Cl)ccc34)[C@H]2/C=C/c2ccccc2)cc1`, in data set [4], the IC50 was 34 nM.

In the case of `Cc1ccc(N2C(=O)[C@H](NC(=O)CCCCCNc3ccnc4cc(Cl)ccc34)[C@@H]2/C=C/c2ccccc2)cc1`, in data set [4], the IC50 came out at 80 nM.

In the case of `CCCN1CNc2cc(Nc3ccnc4cc(Cl)ccc34)ccc2C1`, the IC50 amounted to 220 nM in data set [7] and 130 nM in data set [4].

With `COc1cc(NC(C)CCCNCC2CCC3(CC2)OOC2(OO3)C3CC4CC(C3)CC2C4)c2ncccc2c1` (stereo not given), the IC50 in data set [8] is 330 nM; in data set [4], 21 nM.

`CN(C)c1ccc(C(=O)N[C@@H](CCCCCC(=O)NO)C(=O)Nc2cccc3cccnc23)cc1`: the IC50 in data set [2] worked out at 33 nM; in data set [5], 13 nM.

As to `CCc1c(O)c(=O)ccn1CCCCCCNc1ccnc2cc(Cl)ccc12`, in data set [5], the IC50 is under 1000 nM.

On to `O=C(NCCCCNc1ccnc2cc(Cl)ccc12)C(=O)N[C@@H]1C(=O)N(C2CCCCC2)[C@@H]1/C=C/c1ccccc1`, for which the IC50 in data set [4] stood at 34 nM.

On to `O=C(NCCCCCCNc1ccnc2cc(Cl)ccc12)C(=O)N[C@@H]1C(=O)N(C2CCCCC2)[C@@H]1/C=C/c1ccccc1`, for which the IC50 in data set [4] stood at 34 nM.

As to `Cc1ccc(N2C(=O)[C@H](NC(=O)NCCCCNc3ccnc4cc(Cl)ccc34)[C@@H]2/C=C/c2ccccc2)cc1`, the IC50 in data set [4] is 42 nM.

As for `COc1c(C)n(CCCCCCNc2ccnc3cc(Cl)ccc23)ccc1=O`, the IC50 in data set [5] is under 1000 nM.

On to `O=C(N[C@H](c1ccccc1)[C@H](O)C(=O)NCc1cn(CCNc2ccnc3cc(Cl)ccc23)nn1)c1ccccc1`, for which the half-inhibitory concentration (IC50) was found to be 390 nM in data set [7] and 280 nM in data set [4].

For `COc1cc(NC(C)CCCNC2CCC3(CC2)OOC2(OO3)C3CC4CC(C3)CC2C4)c2ncccc2c1` (stereo not given), the IC50 in data set [4] was found to be 21 nM.

Turning to `O=C(/C=C/c1ccccc1)N[C@@H](CCCCCC(=O)NO)C(=O)Nc1cccc2cccnc12`, the results for the IC50 in data set [2] and in data set [5] were 33 nM and 13 nM, respectively.

In the case of `Cc1ccc(N2C(=O)[C@@H](NC(=O)C(=O)NCCCCCCNc3ccnc4cc(Cl)ccc34)[C@H]2/C=C/c2ccccc2)cc1`, the IC50 in data set [4] was found to be 34 nM.

The molecule `COc1cc(/C=C2\SC(=S)N(CCNc3ccnc4cc(Cl)ccc34)C2=O)cc(OC)c1OC` displayed an IC50 in data set [5] of under 100 nM.

Consider `COc1cc(NC(C)CCCNC(=O)C2CCC3(CC2)OOC2(OO3)C3CC4CC(C3)CC2C4)c2ncccc2c1` (stereo not given), for which, in data set [8], the IC50 turned out to be 330 nM.

For `Cc1ccc(N2C(=O)[C@H](NC(=O)CCCNc3ccnc4cc(Cl)ccc34)[C@@H]2/C=C/c2ccccc2)cc1`, in data set [4], the IC50 is 80 nM.

For the molecule `C=C[C@H]1CN2CC[C@H]1C[C@H]2[C@H](OC(=O)C(C)NC(=O)c1cn(CC)c2ncccc2c1=O)c1ccnc2ccc(OC)cc12` (stereo not given in full), in data set [5], the IC50 stood at 16 nM.

Turning to `C=C[C@H]1CN2CC[C@H]1C[C@H]2[C@H](OC(=O)CNC(=O)c1cn2c3c(c(N4CCN(C)CC4)c(F)cc3c1=O)CC[C@H]2C)c1ccnc2ccc(OC)cc12`, half-maximal inhibition in data set [5] (IC50) was put at 12 nM.

`CN(C)c1ccc(/C=C2\SC(=S)N(CCCCNc3ccnc4cc(Cl)ccc34)C2=O)cc1`: the IC50 in data set [5] was under 100 nM.

Regarding `COc1cc(NC(C)CCCN)c2ncccc2c1` (stereo not given) [PRIMAQUINE], the IC50 in data set [8] was 7500 nM.

For the molecule `Clc1ccc2c(NCCCN3CCN(C(c4ccccc4)c4ccccc4)CC3)ccnc2c1`, the Activity in data set [1] is on record as 2 nM; in data set [2], 1 nM; in data set [3], 0.5 nM.

As for `COc1c(C)n(CCCCNc2ccnc3cc(Cl)ccc23)ccc1=O`, the IC50 in data set [5] is under 1000 nM.

On to `O=C(NCCNc1ccnc2cc(Cl)ccc12)C(=O)N[C@@H]1C(=O)N(C2CCCCC2)[C@@H]1/C=C/c1ccccc1`, for which the IC50 in data set [4] was determined as 34 nM.

Take `Clc1ccc2c(NCCN3CCN(C(c4ccccc4)c4ccccc4)CC3)ccnc2c1`: the values for the Activity in data set [1], in data set [2] and in data set [3] were 2 nM, 1 nM and 0.5 nM, respectively.

As for `O=C(/C=C/c1cccc(F)c1)c1cccc(Nc2ccnc3cc(Cl)ccc23)c1`, the “inhibition (INH)” value in data set [6] is reported as 94%.

In the case of `CC(=O)O[C@H](C(=O)OCCCNc1ccnc2cc(Cl)ccc12)[C@H](NC(=O)c1ccccc1)c1ccccc1`, the IC50 in data set [4] was determined as 160 nM.

Regarding `Cc1ccc(N2C(=O)[C@H](NC(=O)NCCCNc3cccc4cc(Cl)ccc34)[C@@H]2/C=C/c2ccccc2)cc1`, the IC50 in data set [4] was determined as 42 nM.

On to `O=C(NCCNc1cccc2cc(Cl)ccc12)N[C@H]1C(=O)N(C2CCCCC2)[C@H]1/C=C/c1ccccc1`, for which, in data set [4], the IC50 was 42 nM.

Regarding `C=C[C@H]1CN2CC[C@H]1C[C@H]2[C@H](OC(=O)CNC(=O)c1cn(C2CC2)c2nc(N3CCN(CC)CC3)c(F)cc2c1=O)c1ccnc2ccc(OC)cc12`, the IC50 in data set [5] was 12 nM.

As to `O=C(N[C@H](c1ccccc1)[C@H](O)C(=O)NCc1cn(-c2cccc(Nc3ccnc4cc(Cl)ccc34)c2)nn1)c1ccccc1`, the IC50 in data set [7] amounted to 390 nM; in data set [4] it was 280 nM.

`Clc1ccc2c(NCCCCN3CCN(C(c4ccccc4)c4ccccc4)CC3)ccnc2c1`: the Activity in data set [1] turned out to be 2 nM; in data set [2] it was 1 nM; in data set [3], 0.5 nM.

Regarding `Clc1ccc2c(NCCCN3CCN(CC(c4ccccc4)c4ccccc4)CC3)ccnc2c1`, the Activity in data set [1] is recorded as 2 nM; in data set [2], 1 nM; in data set [3], 0.5 nM.

Take `Clc1ccc2c(Nc3ccc4c(c3)NCN(Cc3ccccc3)C4)ccnc2c1`: the values for the IC50 in data set [7] and in data set [4] were 220 nM and 130 nM, respectively.

On to `Cc1ccc(N2C(=O)[C@@H](NC(=O)C(=O)NCCCCNc3ccnc4cc(Cl)ccc34)[C@H]2/C=C/c2ccccc2)cc1`, for which the IC50 in data set [4] turned out to be 34 nM.

`O=C1/C(=C/c2ccccc2[N+](=O)[O-])SC(=S)N1CCCNc1ccnc2cc(Cl)ccc12` returned an IC50 in data set [5] of under 100 nM.

Values taken from ChEMBL document CHEMBL3603813, “Quinoline-based antimalarial hybrid compounds” (Bioorg Med Chem, 2015).
